# Source: ChEMBL document CHEMBL6114968, “Discovery of BW710 as a potent, selective and orally bioavailable fibroblast growth factor receptor 2 (FGFR2) inhibitor” (Eur J Med Chem, 2025)
# Key:
# Settings in all cases: BaF3, 72 h
# BaF3 [1] = experiment: Antiproliferative activity against mouse BaF3 cells expressing FGFR2 incubated for 72 hrs by CCK-8 assay; format: functional, cell-based
# BaF3 [2] = experiment: Antiproliferative activity against mouse BaF3 cells expressing FGFR1 incubated for 72 hrs by CCK-8 assay; format: functional, cell-based
# BaF3 [3] = experiment: Antiproliferative activity against mouse BaF3 cells incubated for 72 hrs by CCK-8 assay
IC50 (BaF3 [1]),IC50 (BaF3 [2]),IC50 (BaF3 [3]),SMILES
90.1 nM,841 nM,> 1000 nM,C=CC(=O)Nc1ccc(-c2c(-c3ccc(S(C)(=O)=NCCC)cc3)c3c(N)ncnc3n2C)cc1 (configuration not stated)
3.6 nM,385 nM,> 1000 nM,C=CC(=O)Nc1ccc(-c2c(-c3ccc(S4(=O)=NCCCCC45CC5)cc3)c3c(N)ncnc3n2C)cc1 (configuration not stated)
8.7 nM,441 nM,> 1000 nM,C=CC(=O)Nc1ccc(-c2c(-c3ccc(S(=N)(=O)c4ccccc4)cc3)c3c(N)ncnc3n2C)cc1 (configuration not stated)
320 nM,> 1000 nM,> 1000 nM,C=CC(=O)Nc1ccc(-c2c(-c3ccc(S(=N)(=O)CC)cc3)c3c(N)ncnc3n2C)cc1 (configuration not stated)
335 nM,> 1000 nM,> 1000 nM,C=CC(=O)Nc1ccc(-c2c(-c3ccc(S(C)(=O)=NC)cc3)c3c(N)ncnc3n2C)cc1 (configuration not stated)
101 nM,> 1000 nM,> 1000 nM,C=CC(=O)Nc1ccc(-c2c(-c3ccc(S(=O)(CC)=NC)cc3)c3c(N)ncnc3n2C)cc1 (configuration not stated)
101 nM,429 nM,> 1000 nM,C=CC(=O)Nc1ccc(-c2c(-c3ccc(S(C)(=O)=Nc4ccccc4)cc3)c3c(N)ncnc3n2C)cc1 (configuration not stated)
61.9 nM,> 1000 nM,> 1000 nM,C=CC(=O)Nc1ccc(-c2c(-c3ccc(S(=N)(=O)C4CC4)cc3)c3c(N)ncnc3n2C)cc1 (configuration not stated)
2.9 nM,684 nM,> 1000 nM,C=CC(=O)Nc1ccc(-c2c(-c3ccc(S(=N)(=O)CC(C)(C)C)cc3)c3c(N)ncnc3n2C)cc1 (configuration not stated)
310 nM,> 1000 nM,> 1000 nM,C=CC(=O)Nc1ccc(-c2c(-c3ccc(S4(=O)=NCCOCC4)cc3)c3c(N)ncnc3n2C)cc1 (configuration not stated)
45.8 nM,> 1000 nM,> 1000 nM,C=CC(=O)Nc1ccc(-c2c(-c3ccc(S(=N)(=O)C4CCC4)cc3)c3c(N)ncnc3n2C)cc1 (configuration not stated)
914 nM,> 1000 nM,> 1000 nM,C=CC(=O)Nc1ccc(-c2c(-c3ccc(S(C)(=N)=O)cc3)c3c(N)ncnc3n2C)cc1 (configuration not stated)
12 nM,> 1000 nM,> 1000 nM,C=CC(=O)Nc1ccc(-c2c(-c3ccc(S4(=O)=NCCC4)cc3)c3c(N)ncnc3n2C)cc1 (configuration not stated)
14.6 nM,> 1000 nM,> 1000 nM,C=C(C)C(=O)Nc1ccc(-c2c(-c3ccc(S4(=O)=NCCCCC4)cc3)c3c(N)ncnc3n2C)cc1 (configuration not stated)
108 nM,> 1000 nM,> 1000 nM,C=CC(=O)Nc1ccc(-c2c(-c3ccc(S(C)(=O)=NC4CC4)cc3)c3c(N)ncnc3n2C)cc1 (configuration not stated)
2.4 nM,493 nM,–,C=C(C)C(=O)Nc1ccc(-c2c(-c3ccc(Oc4nccc(C)n4)c(F)c3)c3c(N)ncnc3n2C)cc1 [LIRAFUGRATINIB]
